US20080045594A1, “Use of at Least One Conjugated Triene-Containing Fatty Acid for Preparing a Medicine for Treating Inflammation” (LABORATOIRES EXPANSCIENCE, priority 2004, published 2008)

Tested on: Normal human adipocytes
Assay: lipid synthesis in suspended adipocytes (incorporation of radio-labelled acetate)
Type: cell-based
Conditions: 10 μM; reference molecule, inhibitor of FAS
Method: Normal human adipocytes were isolated from abdominal biopsies (plastic surgery). Immediately after receipt, the samples were incubated for 30 min at 37° C. in the presence of collagenase (Sigma). The suspension of adipocytes is then rinsed and diluted 3 times in the culture medium.
Culture medium: bicarbonate (Life Technologies) 1.87 mg/ml, penicillin/streptomycin (Life Technologies) 25 IU/ml/25 μg/ml, glutamine (Life Technologies) 2 mM, MEM (Merck Eurolab) 100% v/v, albumin of bovine origin (Sigma) 0.5% w/v.
The suspended adipocytes are incubated for 1 h at 37° C. in the presence of different concentrations of MA105 (20 and 2 ppm) diluted in THF (tetrahydrofurane). A […] volume of radio-labelled acetate (2-C^14, 60.87 μCi/ml, Amersham) is then added to the preparation. After 4 hrs of incubation, the lipids are extracted according to the procedure described by Bligh and Dyer (methanol/chloroform/water), evaporated under nitrogen and the incorporated radioactivity was quantitated by liquid scintillation (LKB 1210 Rackbeta).

In the case of `C/C=C/C/C=C/CCC(=O)[C@H]1O[C@H]1C(N)=O` [ceruline], the “inhibition of the incorporation of acetate” value is reported as 75 % inhibition/control.
